Where two headings read alike, the source gives them in different places.
How the values were obtained:
Assay in all cases: R-SAT broad profiling
Assay type in all cases: cell-based
Parameters in all cases: expressed in transfected cells; host or cells: NIH3T3
5HT1D = 5HT1D (Homo sapiens, UniProt P28221); details: read-out: pEC50 or pIC50 (converted)
Description: (§1) The functional receptor assay, Receptor Selection and Amplification Technology (R-SAT), was used (with minor modifications from that previously described U.S. Pat. No. 5,707,798) to screen compounds for efficacy at the 5-HT2A receptor. Briefly, NIH3T3 cells were grown in 96 well tissue culture plates to 70-80% confluence. Cells were transfected for 12-16 hours with plasmid DNAs using superfect (Qiagen Inc.) as per manufacture's protocols. R-SAT's were generally performed with 50 ng/well of receptor and 20 ng/well of Beta-galactosidase plasmid DNA. All receptor and G-protein constructs used were in the pSI mammalian expression vector (Promega Inc) as described in U.S. Pat. No. 5,707,798. The 5HT2A receptor gene was amplified by nested PCR from brain cDNA using the oligodeoxynucleotides based on the published sequence (see Saltzman et. al. Biochem. Biophys. Res. Comm. 181:1469-78 (1991)). Large-scale transfections, cells were transfected for 12-16 hours, then trypsinized and frozen in DMSO. Frozen cells were later thawed, plated at 10,000-40,000 cells per well of a 96 well plate that contained drug. With both methods, cells were then grown in a humidified atmosphere with 5% ambient CO2 for five days. Media was then removed from the plates and marker gene activity was measured by the addition of the beta-galactosidase substrate ONPG (in PBS with 5% NP-40). The resulting colorimetric reaction was measured in a spectrophotometric plate reader (Titertek Inc.)at […]. All data were analyzed using the computer program XLFit (IDBSm). Efficacy is the percent maximal repression compared to repression by a control compound (ritanserin in the case of 5HT2A). pIC50 is the negative of the log(IC50), where IC50 is the calculated concentration in Molar that produces 50% maximal repression.
(§2) The R-SAT assay (described above in example 289) was used to investigate the selectivity of 4-(4-Fluoro-benzyl)-3-(4-isobutoxy-benzyl)-8-methyl-1-oxa-3,8-diaza-spiro[4.5]decan-2-one.

5HT1B = 5HT1B (Homo sapiens, UniProt P28222); details: read-out: pEC50 or pIC50 (converted)
Description: as §1, §2

5HT2C = biological target: T1, 5HT2C (Homo sapiens, UniProt P28335)
T1 sequence (P28335 33-458): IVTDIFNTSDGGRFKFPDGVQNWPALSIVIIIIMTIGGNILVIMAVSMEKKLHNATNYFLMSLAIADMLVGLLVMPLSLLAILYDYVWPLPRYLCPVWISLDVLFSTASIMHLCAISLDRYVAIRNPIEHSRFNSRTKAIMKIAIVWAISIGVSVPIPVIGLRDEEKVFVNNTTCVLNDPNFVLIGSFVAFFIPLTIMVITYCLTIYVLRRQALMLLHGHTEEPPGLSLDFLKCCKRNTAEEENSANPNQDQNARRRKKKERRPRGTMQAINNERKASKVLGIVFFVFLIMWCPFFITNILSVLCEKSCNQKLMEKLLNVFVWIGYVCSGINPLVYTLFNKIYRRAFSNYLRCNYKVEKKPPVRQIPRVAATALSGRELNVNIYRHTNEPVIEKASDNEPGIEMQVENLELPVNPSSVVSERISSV
Description: as §1, §2

H1 = H1 (Homo sapiens, UniProt P35367); details: agonist; read-out: pEC50 or pIC50 (converted)
Description: as §1, §2

5HT1A = biological target: T2, 5HT1A (Homo sapiens, UniProt P08908); details: agonist; read-out: pEC50 or pIC50 (converted)
T2 sequence (P08908 1-422): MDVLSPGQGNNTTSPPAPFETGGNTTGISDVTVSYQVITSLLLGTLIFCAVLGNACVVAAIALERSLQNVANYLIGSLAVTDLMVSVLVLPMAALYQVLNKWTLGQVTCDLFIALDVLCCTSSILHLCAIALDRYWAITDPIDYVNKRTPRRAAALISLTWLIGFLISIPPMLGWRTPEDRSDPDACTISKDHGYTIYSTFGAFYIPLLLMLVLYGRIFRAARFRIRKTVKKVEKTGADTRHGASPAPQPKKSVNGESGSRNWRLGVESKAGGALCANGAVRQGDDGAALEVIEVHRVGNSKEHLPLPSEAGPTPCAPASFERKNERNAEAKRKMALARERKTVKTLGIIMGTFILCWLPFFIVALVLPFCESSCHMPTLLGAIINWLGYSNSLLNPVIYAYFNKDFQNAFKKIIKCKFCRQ
Description: as §1, §2

5HT1F = biological target: T3, 5HT1F (Homo sapiens, UniProt P30939); details: read-out: pEC50 or pIC50 (converted)
T3 sequence (P30939 1-366): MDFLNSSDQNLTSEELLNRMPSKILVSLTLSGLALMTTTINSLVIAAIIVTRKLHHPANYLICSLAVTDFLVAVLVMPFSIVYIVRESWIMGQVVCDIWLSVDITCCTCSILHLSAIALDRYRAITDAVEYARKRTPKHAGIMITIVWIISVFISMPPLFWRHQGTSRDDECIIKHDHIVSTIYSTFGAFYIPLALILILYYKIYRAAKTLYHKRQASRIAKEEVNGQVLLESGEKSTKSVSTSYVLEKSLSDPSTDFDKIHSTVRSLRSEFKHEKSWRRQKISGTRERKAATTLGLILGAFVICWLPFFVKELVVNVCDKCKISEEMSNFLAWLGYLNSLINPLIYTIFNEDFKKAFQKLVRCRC
Description: as §1, §2

5HT1E = 5HT1E (Homo sapiens, UniProt P28566); details: read-out: pEC50 or pIC50 (converted)
Description: as §1, §2

5HT2B = 5HT2B (Homo sapiens, UniProt P41595); details: read-out: pEC50 or pIC50 (converted)
Description: as §1, §2

Chain of 5HT2B (P41595 whole entry): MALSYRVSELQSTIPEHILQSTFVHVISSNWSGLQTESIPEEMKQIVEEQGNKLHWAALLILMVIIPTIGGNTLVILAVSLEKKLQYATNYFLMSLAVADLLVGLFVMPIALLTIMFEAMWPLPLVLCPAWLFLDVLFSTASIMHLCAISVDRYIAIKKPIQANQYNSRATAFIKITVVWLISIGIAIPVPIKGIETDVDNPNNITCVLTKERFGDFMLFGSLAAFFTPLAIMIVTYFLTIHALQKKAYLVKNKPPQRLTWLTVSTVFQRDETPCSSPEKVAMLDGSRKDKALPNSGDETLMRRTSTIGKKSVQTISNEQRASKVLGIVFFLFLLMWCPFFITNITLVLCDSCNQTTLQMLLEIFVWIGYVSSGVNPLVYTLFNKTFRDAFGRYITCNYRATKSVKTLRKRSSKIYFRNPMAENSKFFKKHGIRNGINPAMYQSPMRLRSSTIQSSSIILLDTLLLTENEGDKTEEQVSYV
Chain of 5HT1B (P28222 whole entry, species assumed): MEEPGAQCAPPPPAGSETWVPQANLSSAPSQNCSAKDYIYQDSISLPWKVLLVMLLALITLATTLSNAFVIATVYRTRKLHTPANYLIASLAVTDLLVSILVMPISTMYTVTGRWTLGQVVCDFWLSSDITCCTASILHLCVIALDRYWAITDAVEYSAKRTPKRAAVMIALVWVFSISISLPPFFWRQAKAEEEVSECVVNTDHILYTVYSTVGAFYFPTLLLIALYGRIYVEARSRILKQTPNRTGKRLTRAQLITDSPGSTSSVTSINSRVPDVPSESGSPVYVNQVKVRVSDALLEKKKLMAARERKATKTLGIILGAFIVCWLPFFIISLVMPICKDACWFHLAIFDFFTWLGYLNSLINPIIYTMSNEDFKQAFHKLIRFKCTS
Chain of 5HT1D (P28221 whole entry, species assumed): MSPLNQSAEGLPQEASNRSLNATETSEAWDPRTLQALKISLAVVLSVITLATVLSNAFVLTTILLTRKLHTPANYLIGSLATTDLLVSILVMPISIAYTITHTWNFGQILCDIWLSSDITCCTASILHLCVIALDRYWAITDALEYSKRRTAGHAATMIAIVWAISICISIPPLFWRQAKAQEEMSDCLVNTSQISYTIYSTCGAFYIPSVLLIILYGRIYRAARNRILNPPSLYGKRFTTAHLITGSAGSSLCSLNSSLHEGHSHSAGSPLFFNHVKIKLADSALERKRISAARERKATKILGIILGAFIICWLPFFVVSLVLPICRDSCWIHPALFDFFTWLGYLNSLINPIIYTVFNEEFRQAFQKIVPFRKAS
Chain of 5HT1E (P28566 whole entry): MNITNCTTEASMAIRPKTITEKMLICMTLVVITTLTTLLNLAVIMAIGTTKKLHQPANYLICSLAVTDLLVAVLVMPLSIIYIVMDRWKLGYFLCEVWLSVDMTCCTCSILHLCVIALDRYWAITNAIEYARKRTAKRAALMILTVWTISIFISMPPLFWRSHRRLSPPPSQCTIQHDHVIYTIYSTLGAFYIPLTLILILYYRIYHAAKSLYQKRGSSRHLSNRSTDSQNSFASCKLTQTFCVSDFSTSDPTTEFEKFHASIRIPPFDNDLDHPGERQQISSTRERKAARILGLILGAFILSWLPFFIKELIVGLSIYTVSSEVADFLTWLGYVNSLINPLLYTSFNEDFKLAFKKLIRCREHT
Chain of H1 (P35367 whole entry): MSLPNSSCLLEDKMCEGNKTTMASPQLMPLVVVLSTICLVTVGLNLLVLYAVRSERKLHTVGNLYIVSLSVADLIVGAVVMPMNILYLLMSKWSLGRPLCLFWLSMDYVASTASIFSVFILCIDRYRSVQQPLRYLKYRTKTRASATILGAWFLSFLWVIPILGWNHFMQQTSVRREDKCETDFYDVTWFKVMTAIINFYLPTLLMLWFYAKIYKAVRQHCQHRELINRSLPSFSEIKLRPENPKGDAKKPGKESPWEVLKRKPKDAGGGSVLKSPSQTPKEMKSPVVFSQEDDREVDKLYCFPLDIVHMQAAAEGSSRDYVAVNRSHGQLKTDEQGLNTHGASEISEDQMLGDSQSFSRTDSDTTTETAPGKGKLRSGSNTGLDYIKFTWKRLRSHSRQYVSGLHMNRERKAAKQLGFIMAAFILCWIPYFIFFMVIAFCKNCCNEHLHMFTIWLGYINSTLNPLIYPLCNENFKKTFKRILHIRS

For CC(C)COc1ccc(CN2C(=O)OC3(CCN(C)CC3)C2Cc2ccc(F)cc2)cc1.Cl (racemic) [Example 69NLS75, 4-(4-Fluorobenzyl)-3-(4-isobutoxybenzyl)-8-methyl-1-oxa-3,8-diazaspiro[4.5]decan-2-one, hydrochloride], the EC50 (5HT1D; agonist) was > 3.16 µM, the IC50 (5HT1D; antagonist) was > 0.562 µM and the EC50 (5HT1B; agonist) was > 3.16 µM. For the same molecule, the IC50 (5HT1B; antagonist) was > 3.16 µM, the EC50 (5HT2C; agonist, read-out: pEC50 or pIC50 (converted)) was > 3.16 µM and the efficacy in brackets (5HT2C; inverse) was 77%. The EC50 (H1) was > 3.16 µM, the EC50 (5HT1A) was > 3.16 µM and the EC50 (5HT1F; agonist) was > 3.16 µM. The IC50 (5HT1F; antagonist) was > 3.16 µM, the EC50 (5HT1E; agonist) was > 3.16 µM and the IC50 (5HT1E; antagonist) was > 0.631 µM. The EC50 (5HT2B; agonist) was > 3.16 µM, the IC50 (5HT2B; antagonist) was > 3.16 µM and the IC50 (5HT2B; inverse) was > 2.51 µM.

— US20080051429A1, “USE OF 4-AMINO-PIPERIDINES FOR TREATING SLEEP DISORDERS” (priority 2006, published 2008)
